Assay: Human HepG2 cell viability assay in 384 well format
Type: toxicity, cell-based
Parameters: dose 125 nL, time 70.5 hour; cytotoxicity at 70.5 h: concentration not given beside the values
Details: HepG2 cells, read-out: Inhibition

SMILES	cytotoxicity at 70.5 h [%]
O=C(NCc1ccc2c(c1)OCO2)c1ccccc1C1CCNC1 (configuration not stated)	38
CCn1cc(CNC(=O)CCn2ncc3c(Cl)cccc32)cn1	17.5
O[C@H]1COCCN(Cc2cccc3c2OCO3)C1	-4.2
CC(C)Oc1ccccc1C1CC(=O)Nc2c1cnn2C (configuration not stated)	-11.9
CCOc1ncccc1NC(=O)N1CCCC1c1cc(C)no1 (configuration not stated)	-8.02
O=C(NCCNc1ccc(C(F)(F)F)cn1)c1ccc(Br)cc1F	17.1
O=C(c1ncccn1)N1C[C@@H]2COC[C@]2(COCc2cccnc2)C1	-5.13
CCCn1nnnc1CN(C)C(C)c1ccc(C)cc1 (configuration not stated)	-5.6
COCCNC(=O)[C@H]1C[C@@H]2CCN(c3nncs3)C[C@H]2O1	-4.17
CCNC(=O)N1CC(c2nc(Cc3ccccc3)no2)C1	-5.59
CCc1cnc(N2CCC(=O)N(CC3CC3)C(C(C)C)C2)nc1 (configuration not stated)	8.36
CC(C)Cn1c(=O)n(CCCn2cccn2)c2cc(C(=O)O)cnc21	-10.8
c1cc2c(cc1CN1CC[C@H]3[C@H]1CCN3CC1CC1)OCO2	-1.51
CC(C)(N)c1cn(C2CCN(c3ncccc3Cl)CC2)nn1	-9.17
CCn1cc(NC(=O)CN2CCC(Oc3ccccc3C)CC2)c(C)n1	-2.26
CC(C)COc1cncc(N2CCCC(CC(N)=O)C2)n1 (configuration not stated)	-1.79
CCOCCCNC(=O)C1CCC(=O)N(CCc2ccc(Cl)cc2)C1 (configuration not stated)	-7.25
CC(C)Oc1ccccc1CNC(=O)N(C)C(C)CS(C)(=O)=O (configuration not stated)	16.1
COc1cc(C)c(CNC(C)c2csc(C)n2)cc1OC (configuration not stated)	-2.42
O=C(CCN1CCCCCC1c1ccco1)N1CCOCC1 (configuration not stated)	-9.92
CC1CCc2nc(NC(=O)CN(C)C(=O)c3ccco3)sc2C1 (configuration not stated)	28.3
Cc1c(C2N3C[C@]4(C(C)C)CN2C[C@](C(C)C)(C3)C4=O)[nH]c(=O)[nH]c1=O (some centres not stated)	-4.97
CC(C)CC1SCC(=O)Nc2c1cnn2C1CCCC1 (configuration not stated)	-18.7

SMILES	cytotoxicity at 70.5 h [%]
COc1ccc(CC(=O)N2CC[C@@H]3NC(=O)CC[C@@H]32)cc1	3.62
CCn1c(C2CCCN(Cc3nccn3CCOC)C2)nn(C)c1=O (configuration not stated)	-11.9
COCc1ncc(CN2CCC(Oc3ccccc3OC)CC2)cn1	-10.9
O=C(c1cccc(N2CCCC2=O)c1)N1CCCC(n2cccn2)C1 (configuration not stated)	-6.59
O=C(COCCc1ccccc1)N1CCCC(n2cncn2)C1 (configuration not stated)	1.67
O=C(Nc1ccccc1Cn1cncn1)C1CCN(C2CCCCC2)C1 (configuration not stated)	-5.06
Cc1cccc(-n2cc(CN3CCN(C)[C@@H]4CS(=O)(=O)C[C@@H]43)cn2)c1	-15.9
NC(=O)N1CCCCCC1C1CCN(c2nccc(C(F)(F)F)n2)CC1 (configuration not stated)	-13.9
CC(C)NC(=O)C1CN(C(=O)Nc2ccc(F)cc2)CC12CCOCC2 (configuration not stated)	-6.35
Cc1n[nH]c(C)c1C1COCCN1C(=O)c1ccc2c(c1)CCO2 (configuration not stated)	-8
CCc1nc(C2CCCN2C(=O)c2cnc[nH]2)no1 (configuration not stated)	-7.25
O=C(C1CC1)N1CCN(Cc2ccncc2)c2ncccc2C1	-10.1
Cc1cnc(N2C[C@@H]3[C@@H](C2)OCC(=O)N3CC(C)C)nc1	2.16
Cc1cc(C2CCCN(CCCS(N)(=O)=O)C2)n[nH]1 (configuration not stated)	-5.94
CCc1nnc(CN2CCOC(Cn3cc(C)cn3)C2)o1 (configuration not stated)	-6.6
CCOC1COC2(CCN(c3cccc(C)n3)CC2)C1 (configuration not stated)	-2.34
CCC(CNC(=O)NC1CCN(C)CC1)Oc1ccccc1Cl (configuration not stated)	30.5
c1cnc(Nc2cncc(C3CCCN3)n2)cn1 (configuration not stated)	-3.08
CC(=O)N1CCC(c2cc3c(ncn3C)c(-c3cnn(C)c3)n2)CC1	-8.6
CCN(CC)C(=O)Cc1csc(C(C)C)n1	14
COc1ccc(OCC(O)CN2CCN(c3nccs3)CC2)cc1 (configuration not stated)	-2.04
CC(=O)NCCNC(=O)NCc1ccc(-n2ccc(C(F)(F)F)n2)cc1	-6.79
CN(C)CCO[C@H]1C[C@@H](O)C12CCN(c1cnccn1)CC2	-6.05

SMILES	cytotoxicity at 70.5 h [%]
CCn1ccnc1CN1CCN(CC(=O)NC2CCOCC2)CC1	25.6
CC(C)c1nc(CSc2nnc(-c3cccs3)n2CC(N)=O)no1	-9.43
Cc1ccnn1CCN1CCCC2(CCC(=O)N(C3CCCC3)C2)C1 (configuration not stated)	-21
CC(C)n1ccc2c(C(=O)NC3CN4CCC3CC4)cccc21 (configuration not stated)	-17.6
Cc1nc(CC(=O)N2CCN(C(C)c3ccccc3F)CC2)cs1 (configuration not stated)	-5.6
O=C(N1CCCCC1)N1CCN(CC(O)c2ccc(F)cc2)CC1 (configuration not stated)	-7.9
CC(C)c1ccc(C(=O)O)cc1S(=O)(=O)Nc1ccc(=O)n(C)c1	2.84
CCS(=O)(=O)N1Cc2nccn2CC(COc2cccnc2)C1 (configuration not stated)	-2.17
CCCc1n[nH]c(C2CN(CCC(F)(F)F)CCO2)n1 (configuration not stated)	-5.18
COc1cc(Cl)c(NCc2c(C)noc2C)cc1OC	-7.06
CC(C)N1c2sc(-c3ccsc3)nc2CC1C(=O)NC1CCCC1 (configuration not stated)	-7.06
Cc1ncnc2c1CCN(Cc1ccc3c(c1)OCO3)CC2	-3.06
CCCNc1cc(C(=O)N2CCOCC2)nc(C)n1	-4.28
COC(=O)N1CCCN(Cn2nc(C)c(Br)c2C)CC1	31.2
O=S(=O)(c1cccnc1)N1CCN(Cc2nc(-c3cccs3)cs2)CC1	-14.7
CNc1cc(N2CCCC2CNCc2ccc(C)o2)ncn1 (configuration not stated)	5.47
CCCn1cc(C(=O)NC(CC(=O)O)c2ccccc2F)c(C)n1 (configuration not stated)	6.87
Cn1c(N)nnc1SC1CCCN(c2ccccc2F)C1=O (configuration not stated)	-1.56
Cc1nc(CN2CCCCC2Cn2cccn2)nc2ccccc12 (configuration not stated)	-5.42
CC(C)c1ccc(C(O)CN2CCN(Cc3nccn3C)CC2)cc1 (configuration not stated)	-3.6
COc1cccc(OCC(=O)N2CCOc3ccncc32)c1	13.2
NCCc1c(-c2ccc(F)cc2)[nH][nH]c1=O	-3.38
C[C@@H]1CN(C(=O)c2ccc(C#N)nc2)CC[C@@]1(O)C1CCOCC1	-9.58

SMILES	cytotoxicity at 70.5 h [%]
C[C@H](C(=O)N1Cc2ccccc2CC2(CCCN2C)C1)c1ccccc1 (some centres not stated)	-5.49
CSc1ncccc1C(=O)N1C[C@H]2CC[C@@H]1CN(c1cnccn1)C2	-10.6
O=C(Cc1ccc2c(c1)CCO2)N1CCCC(n2cccn2)C1 (configuration not stated)	-12.1
COCCCN1C(=O)CC[C@H]2CN(Cc3ncc[nH]3)CC[C@H]21	8.43
CC(C)OCCCNC(=O)Nc1cccc2ncccc12	-2.69
Cc1cnn(CC2CCCCN2Cc2nccn2CC(F)(F)F)c1 (configuration not stated)	4.47
Cc1n[nH]c2c1C(c1cc(F)cc(F)c1)SCC(=O)N2 (configuration not stated)	17.9
CC(C)n1cnnc1CN(C)Cc1cnc(-c2ccco2)nc1	-1.59
O=C(NCc1ccco1)c1ccc(N2CCOCC2)cc1	0.191
Cc1noc(C)c1-c1ccc(C2CCCN2C(=O)c2cnn(C)c2)nc1 (configuration not stated)	-0.651
Cc1noc(CS(=O)(=O)c2cc(F)ccc2F)n1	-8.49
CC(C)c1cc(C(=O)N(Cc2ccncc2)CC2CCCO2)no1 (configuration not stated)	-6.68
COCCN1C[C@H]2[C@@H](C1)N(C(=O)CCc1ccccc1)CC[C@H]2OC	-10.6
Cc1oncc1NS(=O)(=O)c1c[nH]c2ncccc12	-3.88
CN(C)C(=O)CCNC(=O)Nc1cccc(Cl)c1-n1cccn1	1.32
CCc1cccc(CC(=O)NC2CCN(C(=O)NC(C)(C)C)CC2)c1	1.52
Cc1cc(C(F)F)nn1C(C)C(=O)NCc1ncc[nH]1 (configuration not stated)	-1.75
O=C(CCC1CCN(Cc2ncc[nH]2)CC1)Nc1ccccc1Cl	-10.7
Cc1nnc(NC(=O)NCc2cccnc2N(C)C)s1	-8.59
CN1CCCCC1c1ncc2c(n1)CCN(Cc1ccc(Cl)c(F)c1)C2 (configuration not stated)	-3.53
COc1ccc(NCc2c[nH]nc2-c2cccnc2)cc1	8.67
Cc1ccc(CN2CC[C@@H]3[C@@H](CO[C@H]3CN(C)C)C2)o1	-5.5
Cc1nccn1-c1ccc(C(C)NCCc2ccccn2)cc1 (configuration not stated)	0.00833

SMILES	cytotoxicity at 70.5 h [%]
Cc1cc(C(=O)N2CCCCC2)ccc1NS(C)(=O)=O	-8.47
Cn1cc(C(=O)N2CC[C@@H]3[C@@H]2CCN3Cc2ccncc2)cn1	-12.1
c1ccc([C@@H]2CN(Cc3ccncc3)C[C@H]2c2cc[nH]n2)cc1	-1.08
Cc1nc(C2CCCN(C(=O)CCCn3ccnc3C)C2)no1 (configuration not stated)	-11.8
Cn1ccnc1Sc1ccc(S(N)(=O)=O)cn1	-5.03
CCN(CC)CCN(C)Cc1cn(C)nc1-c1ccc2c(c1)OCCO2	23.5
CC(C)CN1C[C@H]2C[C@H](C(=O)Nc3cccnc3)[C@@H](C1)O2	-4.05
Cc1oc(C)c(C(=O)N2CCCN(c3nccs3)CC2)c1C	-5.97
COc1ncc(CN2C[C@@H]3CC[C@@](O)(c4ccc(C)cn4)[C@@H]3C2)cn1	2.96
Cc1nc(C2CCN(S(=O)(=O)c3ccc4c(c3)CCC4)CC2)n[nH]1	-2.6
COc1ncccc1N(C)C(=O)Cn1cc(-c2ccccc2)nn1	-4.75
CC(NCC1(N(C)C)CCOCC1)c1ccc(Cl)cc1 (configuration not stated)	-3.88
Cc1nc(CO[C@H]2CN(C(=O)c3cccnc3)[C@@H]3COC[C@H]23)cs1	-6.99
CS(=O)(=O)N1CCN2C(=O)N(C3CCCCC3)C[C@H]2C1	7.82
Cn1nc(COCC2CC2)c2c1CN(C(=O)c1ccno1)CC2	-9.87
COCCC(=O)N1Cc2cnc(Cc3ccc(OC)cc3)nc2C1	-1.53
COc1c(F)cc(-c2cccc3c2OC(CN)C3)cc1F (configuration not stated)	0.0982
COc1ccc(C(=O)N(C)Cc2cc(C)on2)c(OC)c1	-4.71
CC(C)(C)c1cc(NC(=O)CN2CCCC2Cn2cncn2)on1 (configuration not stated)	21.1
CC(c1nc(C2CC2)no1)N1CCN(Cc2cccc(F)c2F)CC1 (configuration not stated)	-10.5
